Source: patent US20190255086A1, “Compositions and Methods for Treating an Infection” (CMPD Licensing, LLC, priority 2015, published 2019)
Where two headings read alike, the source gives them in different places.

Tests used:
[1] = system: Neisseria meningitidis; assay: Expected efficacy of anti-bacterial agents against various bacteria (Tables 5 and 6); details: Gram: neg
[2] = system: Klebsiella (Calymmatobacterium) granulomatis; assay: as above; details: Gram: neg
[3] = system: Bartonella bacilliformis; assay: as above; details: Gram: neg
[4] = system: Haemophilus ducreyi; assay: as above; details: Gram: neg
[5] = system: Klebsiella pneumoniae; assay: as above; details: Gram: neg
[6] = system: Salmonella typhi; assay: as above; details: Gram: neg
[7] = system: Staphylococcus aureus (MSSA); assay: as above; details: Gram: pos
[8] = system: Shigella boydii; assay: as above; details: Gram: neg
[9] = system: Pseudomonas fluorescens; assay: as above; details: Gram: neg
[10] = system: Acinetobacter lwoffii; assay: as above; details: Gram: neg
[11] = system: Providencia rettgeri; assay: as above; details: Gram: neg
[12] = system: Rickettsiae
[13] = system: Moraxella catarrhalis; assay: Expected efficacy of anti-bacterial agents against various bacteria (Tables 5 and 6); details: Gram: neg
[14] = system: Pseudomonas aeruginosa; assay: as above; details: Gram: neg
[15] = system: Streptococcus pyogenes; assay: as above; details: Gram: pos
[16] = system: Klebsiella oxytoca; assay: as above; details: Gram: neg
[17] = system: Morganella morganii; assay: as above; details: Gram: neg
[18] = system: Brucella species
[19] = system: Legionella pneumophila
[20] = system: Shigella flexneri; assay: Expected efficacy of anti-bacterial agents against various bacteria (Tables 5 and 6); details: Gram: neg
[21] = system: Haemophilus influenzae; assay: as above; details: Gram: neg
[22] = system: Enterobacter cloacae; assay: as above; details: Gram: neg
[23] = system: gram-positive staphylococci and streptococci; details: general background statement; cited from earlier work
[24] = system: Citrobacter diversus; assay: Expected efficacy of anti-bacterial agents against various bacteria (Tables 5 and 6); details: Gram: neg
[25] = system: Enterobacter aerogenes; assay: as above; details: Gram: neg
[26] = system: Proteus mirabilis; assay: as above; details: Gram: neg
[27] = system: Proteus vulgaris; assay: as above; details: Gram: neg
[28] = system: Methicillin resistant staph aureus (MRSA); assay: as above; details: Gram: pos
[29] = system: Acinetobacter baumannii; assay: as above; details: Gram: neg
[30] = system: Serratia marcescens; assay: as above; details: Gram: neg
[31] = system: Neisseria gonorrhoeae; assay: as above; details: Gram: neg
[32] = system: Francisella tularensis
[33] = system: Escherichia coli; assay: Expected efficacy of anti-bacterial agents against various bacteria (Tables 5 and 6); details: Gram: neg
[34] = system: Vibrio cholerae; assay: as above; details: Gram: neg
[35] = system: Corynebacterium jeikeium; assay: as above; details: Gram: pos
[36] = system: Bordetella pertussis; assay: as above; details: Gram: neg
[37] = system: Yersinia pestis
[38] = system: Enterobacter sakazakii; assay: Expected efficacy of anti-bacterial agents against various bacteria (Tables 5 and 6); details: Gram: neg
[39] = system: Shigella dysenteriae; assay: as above; details: Gram: neg
[40] = system: Corynebacterium urealyticum; assay: as above; details: Gram: pos
[41] = system: Clostridium perfringens
[42] = system: Citrobacter freundii; assay: Expected efficacy of anti-bacterial agents against various bacteria (Tables 5 and 6); details: Gram: neg
[43] = system: Shigella sonnei; assay: as above; details: Gram: neg
[44] = system: Campylobacter jejuni; assay: as above; details: Gram: neg
[45] = system: Acinetobacter calcoaceticus; assay: as above; details: Gram: neg
[46] = system: Providencia stuartii; assay: as above; details: Gram: neg
[47] = system: Cryptococcus neoformans; assay: Expected efficacy of anti-fungal agents against various fungi (Table 4)
[48] = system: Candida species; assay: as above
[49] = system: Blastomyces dermatitidis; assay: as above
[50] = system: Coccidioides immitis; details: expected efficacy
[51] = system: Aspergillus fumigatus; assay: Expected efficacy of anti-fungal agents against various fungi (Table 4)
[52] = system: Enterococcus faecium; assay: Expected efficacy of anti-bacterial agents against various bacteria (Tables 5 and 6); details: Gram: pos
[53] = system: Streptococcus pneumoniae; assay: as above; details: Gram: pos
[54] = system: Chlamydia trachomatis; assay: as above; details: Gram: n/a
[55] = system: Diphtheroids; assay: as above; details: Gram: pos
[56] = system: Staphylococcus epidermidis; assay: as above; details: Gram: pos
[57] = system: Chlamydia pneumoniae; assay: as above; details: Gram: n/a
[58] = system: Viridans group streptococci; assay: as above; details: Gram: pos
[59] = system: Mycoplasma pneumoniae; assay: as above; details: Gram: n/a
[60] = system: Peptostreptococcus; assay: as above; details: Gram: pos
[61] = system: Enterococcus faecalis; assay: as above; details: Gram: pos
[62] = system: Clostridium difficile; assay: as above; details: Gram: anaer
[63] = system: Bacteroides fragilis; assay: as above; details: Gram: anaer
[64] = system: Haemophilus parainfluenzae; assay: as above; details: Gram: neg
[65] = system: Streptococcus agalactiae; assay: as above; details: Gram: pos
[66] = system: Chlamydia psittaci
[67] = system: Aspergillus niger; assay: Expected efficacy of anti-fungal agents against various fungi (Table 4)
[68] = system: Fusarium species; assay: as above
[69] = system: Aspergillus terreus; assay: as above

C/C(=C\C(=O)OCCCCCCCCC(=O)O)C[C@@H]1OC[C@H](C[C@@H]2O[C@H]2[C@@H](C)[C@H](C)O)[C@@H](O)[C@H]1O [Bactroban, Mupirocin]
Efficacy of various antibiotic agents [1]: no
Efficacy of various antibiotic agents [2]: no
Efficacy of various antibiotic agents [3]: no
Efficacy of various antibiotic agents [4]: no
Efficacy of various antibiotic agents [5]: no
Efficacy of various antibiotic agents [6]: no
Efficacy of various antibiotic agents [7]: yes
Efficacy of various antibiotic agents [8]: no
Efficacy of various antibiotic agents [9]: no
Efficacy of various antibiotic agents [10]: no
Efficacy of various antibiotic agents [11]: no
Efficacy of various antibiotic agents ([12]; expected efficacy, Rickettsiae, Gram: neg): no
Efficacy of various antibiotic agents [13]: no
Efficacy of various antibiotic agents [14]: no
Efficacy of various antibiotic agents [15]: yes
Efficacy of various antibiotic agents [16]: no
Efficacy of various antibiotic agents [17]: no
Efficacy of various antibiotic agents ([18]; expected efficacy, Brucella species, Gram: neg): no
Efficacy of various antibiotic agents ([19]; expected efficacy, Legionella pneumophila, Gram: neg): no
Efficacy of various antibiotic agents [20]: no
Efficacy of various antibiotic agents [21]: no
Efficacy of various antibiotic agents [22]: no
activity against gram-positive staphylococci and streptococci [23]: excellent activity
Efficacy of various antibiotic agents [24]: no
Efficacy of various antibiotic agents [25]: no
Efficacy of various antibiotic agents [26]: no
Efficacy of various antibiotic agents [27]: no
Efficacy of various antibiotic agents [28]: yes
Efficacy of various antibiotic agents [29]: no
Efficacy of various antibiotic agents [30]: no
Efficacy of various antibiotic agents [31]: no
Efficacy of various antibiotic agents ([32]; expected efficacy, Francisella tularensis, Gram: neg): no
Efficacy of various antibiotic agents [33]: no
Efficacy of various antibiotic agents [34]: no
Efficacy of various antibiotic agents [35]: no
Efficacy of various antibiotic agents [36]: no
Efficacy of various antibiotic agents ([37]; expected efficacy, Yersinia pestis, Gram: neg): no
Efficacy of various antibiotic agents [38]: no
Efficacy of various antibiotic agents [39]: no
Efficacy of various antibiotic agents [40]: no
Efficacy of various antibiotic agents ([41]; expected efficacy, Clostridium perfringens, Gram: anaer): no
Efficacy of various antibiotic agents [42]: no
Efficacy of various antibiotic agents [43]: no
Efficacy of various antibiotic agents [44]: no
Efficacy of various antibiotic agents [45]: no
Efficacy of various antibiotic agents [46]: no

OC(Cn1cncn1)(Cn1cncn1)c1ccc(F)cc1F [Fluconazole]
Efficacy of various antifungal agents [47]: yes
Efficacy of various antifungal agents [48]: yes
Efficacy of various antifungal agents [49]: yes
Efficacy of various antifungal agents [50]: yes
Efficacy of various antifungal agents [51]: yes

CN[C@H](CC(C)C)C(=O)N[C@H]1C(=O)N[C@@H](CC(N)=O)C(=O)N[C@H]2C(=O)N[C@H]3C(=O)N[C@H](C(=O)N[C@H](C(=O)O)c4cc(O)cc(O)c4-c4cc3ccc4O)[C@H](O)c3ccc(c(Cl)c3)Oc3cc2cc(c3O[C@@H]2O[C@H](CO)[C@@H](O)[C@H](O)[C@H]2O[C@H]2C[C@](C)(N)[C@H](O)[C@H](C)O2)Oc2ccc(cc2Cl)[C@H]1O [Vancomycin]
Efficacy of various antibiotic agents [52]: yes, not VRE
Efficacy of various antibiotic agents [1]: no
Efficacy of various antibiotic agents [53]: yes
Efficacy of various antibiotic agents [54]: no
Efficacy of various antibiotic agents [2]: no
Efficacy of various antibiotic agents [3]: no
Efficacy of various antibiotic agents [4]: no
Efficacy of various antibiotic agents [55]: yes
Efficacy of various antibiotic agents [5]: no
Efficacy of various antibiotic agents [6]: no
Efficacy of various antibiotic agents [7]: yes
Efficacy of various antibiotic agents [8]: no
Efficacy of various antibiotic agents [9]: no
Efficacy of various antibiotic agents [10]: no
Efficacy of various antibiotic agents [11]: no
Efficacy of various antibiotic agents [12]: no
Efficacy of various antibiotic agents [13]: no
Efficacy of various antibiotic agents [14]: no
Efficacy of various antibiotic agents [56]: yes
Efficacy of various antibiotic agents [15]: yes
Efficacy of various antibiotic agents [16]: no
Efficacy of various antibiotic agents [57]: no
Efficacy of various antibiotic agents [17]: no
Efficacy of various antibiotic agents [18]: no
Efficacy of various antibiotic agents [19]: no
Efficacy of various antibiotic agents [20]: no
Efficacy of various antibiotic agents [21]: no
Efficacy of various antibiotic agents [22]: no
Efficacy of various antibiotic agents [58]: yes
Efficacy of various antibiotic agents [59]: no
Efficacy of various antibiotic agents [24]: no
Efficacy of various antibiotic agents [25]: no
Efficacy of various antibiotic agents [26]: no
Efficacy of various antibiotic agents [27]: no
Efficacy of various antibiotic agents [28]: yes
Efficacy of various antibiotic agents [60]: yes
Efficacy of various antibiotic agents [61]: yes
Efficacy of various antibiotic agents [62]: yes
Efficacy of various antibiotic agents [29]: no
Efficacy of various antibiotic agents [30]: no
Efficacy of various antibiotic agents [31]: no
Efficacy of various antibiotic agents [32]: no
Efficacy of various antibiotic agents [33]: no
Efficacy of various antibiotic agents [34]: no
Efficacy of various antibiotic agents [35]: yes
Efficacy of various antibiotic agents [36]: no
Efficacy of various antibiotic agents [37]: no
Efficacy of various antibiotic agents [38]: no
Efficacy of various antibiotic agents [63]: no
Efficacy of various antibiotic agents [64]: no
Efficacy of various antibiotic agents [39]: no
Efficacy of various antibiotic agents [40]: yes
Efficacy of various antibiotic agents [65]: yes
Efficacy of various antibiotic agents [41]: no
Efficacy of various antibiotic agents [66]: no
Efficacy of various antibiotic agents [42]: no
Efficacy of various antibiotic agents [43]: no
Efficacy of various antibiotic agents [44]: no
Efficacy of various antibiotic agents [45]: no
Efficacy of various antibiotic agents [46]: no

C[C@@H](c1ncncc1F)[C@](O)(Cn1cncn1)c1ccc(F)cc1F [Voriconazole]
Efficacy of various antifungal agents [48]: yes
Efficacy of various antifungal agents [67]: yes
Efficacy of various antifungal agents [68]: yes
Efficacy of various antifungal agents [69]: yes
Efficacy of various antifungal agents [51]: yes
